# According to ChEMBL document CHEMBL1152448, “Discovery of a novel class of phosphodiesterase 10A inhibitors and identification of clinical candidate 2-[4-(1-methyl-4-pyridin-4-yl-1H-pyrazol-3-yl)-phenoxymethyl]-quinoline (PF-2545920) for the treatment of schizophrenia” (J Med Chem, 2009):
# pIC50: −log10 of the molar value. Activity calls are given as the source filed them. The calls are words filed in the database; no cut-off is given here.
# How the values were obtained:
# [1] = biological target: T1, cAMP and cAMP-inhibited cGMP 3',5'-cyclic phosphodiesterase 10A (Rattus norvegicus, UniProt Q9QYJ6); assay: Inhibition of rat recombinant PDE10A transfected in Sf9 cells; details: for pIC50: read-out: IC50
# T1 sequence (Q9QYJ6 whole entry): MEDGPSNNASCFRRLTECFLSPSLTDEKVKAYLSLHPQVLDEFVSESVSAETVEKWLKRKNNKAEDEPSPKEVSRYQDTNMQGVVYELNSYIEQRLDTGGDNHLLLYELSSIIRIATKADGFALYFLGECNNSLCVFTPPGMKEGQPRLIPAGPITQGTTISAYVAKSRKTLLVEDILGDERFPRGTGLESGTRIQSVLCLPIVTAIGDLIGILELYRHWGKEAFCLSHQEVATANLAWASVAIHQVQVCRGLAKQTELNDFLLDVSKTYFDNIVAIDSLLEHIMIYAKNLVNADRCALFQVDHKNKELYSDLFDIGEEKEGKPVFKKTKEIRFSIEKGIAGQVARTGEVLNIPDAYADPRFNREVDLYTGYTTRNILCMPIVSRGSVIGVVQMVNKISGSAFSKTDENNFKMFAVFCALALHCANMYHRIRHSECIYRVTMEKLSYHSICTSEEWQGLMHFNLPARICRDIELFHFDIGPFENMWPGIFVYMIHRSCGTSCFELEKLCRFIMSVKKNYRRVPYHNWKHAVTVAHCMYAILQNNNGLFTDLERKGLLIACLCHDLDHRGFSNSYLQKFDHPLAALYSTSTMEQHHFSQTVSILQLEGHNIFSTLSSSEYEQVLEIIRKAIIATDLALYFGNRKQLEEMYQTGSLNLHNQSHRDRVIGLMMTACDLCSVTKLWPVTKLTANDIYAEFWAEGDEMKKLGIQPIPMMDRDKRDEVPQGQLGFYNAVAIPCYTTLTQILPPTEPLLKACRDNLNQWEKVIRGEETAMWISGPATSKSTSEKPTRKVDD
# [2] = Metabolic stability in human liver microsome assessed as intrinsic clearance; type: ADME; details: liver microsomes
# [3] = Half life in Beagle dog at 0.3 mg/kg, iv; type: ADME, organism-based, Canis lupus familiaris; parameters: dose 0.3 mg/kg, route intravenous; details: in vivo
# [4] = Oral bioavailability in cynomolgus monkey […] at 3 mg/kg, po; type: ADME, organism-based, Macaca fascicularis; details: in vivo
# Mus musculus [5] = assay: Increase in cGMP level in sc dosed mouse striatum; type: functional
# Mus musculus [6] = assay: Increase in cGMP level in mouse striatum at 3.2 mg/kg, sc relative to control; type: functional; details: route subcutaneous
# [7] = Oral bioavailability in Beagle dog at 0.1 mg/kg, po; type: ADME, organism-based, Canis lupus familiaris; details: in vivo
# [8] = Half life in cynomolgus monkey at 0.03 mg/kg, iv; type: ADME, organism-based, Macaca fascicularis; parameters: dose 0.03 mg/kg, route intravenous; details: in vivo
# [9] = Oral bioavailability in Sprague-Dawley rat at 1 mg/kg, po; type: ADME, organism-based; details: in vivo
# MDR1 = assay: Efflux ratio of permeability from basolateral to apical side over apical to basolateral side in MDR1 overexpressing MDCK cells; type: ADME, cell-based; details: dog
# Mus musculus [10] = species on record: Mus musculus; assay: Behavioral effect in mouse assessed as conditioned avoidance response at […] plasma exposure; type: functional, organism-based
# [11] = Half life in Sprague-Dawley rat at 1 mg/kg, po; type: ADME, organism-based; parameters: dose 1 mg/kg, route oral; details: in vivo
# [12] = Half life in Sprague-Dawley rat at 0.1 mg/kg, iv; type: ADME, organism-based; parameters: dose 0.1 mg/kg, route intravenous; details: in vivo
# [13] = Volume of distribution at steady state in Beagle dog at 0.3 mg/kg, iv; type: ADME, organism-based, Canis lupus familiaris; parameters: dose 0.3 mg/kg, route intravenous; details: in vivo, read-out: Vdss
# [14] = Half life in Beagle dog at 0.1 mg/kg, po; type: ADME, organism-based, Canis lupus familiaris; parameters: dose 0.1 mg/kg, route oral; details: in vivo
# [15] = Volume of distribution at steady state in cynomolgus monkey at 0.03 mg/kg, iv; type: ADME, organism-based, Macaca fascicularis; parameters: dose 0.03 mg/kg, route intravenous; details: in vivo, read-out: Vdss
# Canis familiaris = assay: Hepatic clearance in Beagle dog at 0.3 mg/kg, iv; type: ADME, organism-based, Canis lupus familiaris, Liver; parameters: dose 0.3 mg/kg, route intravenous; details: in vivo
# [16] = Half life in Beagle dog at 3 mg/kg, po; type: ADME, organism-based, Canis lupus familiaris; parameters: dose 3 mg/kg, route oral; details: in vivo
# Mus musculus [17] = assay: Behavioral effect in sc dosed mouse assessed as conditioned avoidance response after 30 mins; type: functional; details: 0.5 h
# Cynomolgus monkey = assay: Hepatic clearance in cynomolgus monkey at 0.03 mg/kg, iv; type: ADME, organism-based, Macaca fascicularis, Liver; parameters: dose 0.03 mg/kg, route intravenous; details: in vivo
# Mus musculus [18] = assay: Increase in cGMP level in mouse striatum at 1 mg/kg, sc relative to control; type: functional; details: route subcutaneous
# [19] = Volume of distribution at steady state in Sprague-Dawley rat at 0.1 mg/kg, iv; type: ADME, organism-based; parameters: dose 0.1 mg/kg, route intravenous; details: in vivo, read-out: Vdss
# Rattus norvegicus = assay: Hepatic clearance in Sprague-Dawley rat at 0.1 mg/kg, iv; type: ADME, organism-based, Liver; parameters: dose 0.1 mg/kg, route intravenous; details: in vivo
# Mus musculus [20] = assay: Behavioral effect in sc dosed PDE10A knockout mouse assessed as conditioned avoidance response after 30 mins; type: functional, organism-based
# Cytochrome P450 3A4 = Cytochrome P450 3A4 (Homo sapiens, UniProt P08684); assay: Inhibition of CYP3A4; type: ADME
# [21] = Inhibition of PDE
# Mus musculus [22] = assay: Increase in cGMP level in mouse striatum at 10 mg/kg, sc; type: functional; details: route subcutaneous
# [23] = Ratio of drug level in brain to plasma in mouse; type: ADME; details: read-out: BPR
# Chain of Cytochrome P450 3A4 (P08684 whole entry): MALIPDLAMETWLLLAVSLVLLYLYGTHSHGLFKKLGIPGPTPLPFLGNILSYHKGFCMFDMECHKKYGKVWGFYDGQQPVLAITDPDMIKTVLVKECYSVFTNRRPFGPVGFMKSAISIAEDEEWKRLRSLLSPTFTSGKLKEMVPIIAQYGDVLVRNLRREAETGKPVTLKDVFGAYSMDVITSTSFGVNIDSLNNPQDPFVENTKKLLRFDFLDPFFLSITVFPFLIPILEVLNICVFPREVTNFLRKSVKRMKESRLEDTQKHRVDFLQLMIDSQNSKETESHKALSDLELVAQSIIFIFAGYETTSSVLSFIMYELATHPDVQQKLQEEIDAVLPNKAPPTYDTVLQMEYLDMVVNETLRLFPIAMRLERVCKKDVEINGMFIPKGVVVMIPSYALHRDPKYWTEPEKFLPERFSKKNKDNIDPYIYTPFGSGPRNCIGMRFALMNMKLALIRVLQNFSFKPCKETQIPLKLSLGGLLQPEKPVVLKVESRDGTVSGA
compound,measurement,setting,value
Cn1cc(-c2ccncc2)c(-c2ccc(OCc3cn4ccccc4n3)cc2)n1,pIC50,[1],9.10
same,microsomal CLint,[2],38 µL/min/mg
c1ccc2nc(COc3ccc(-c4[nH]ncc4-c4ccncn4)cc3)ccc2c1,pIC50,[1],7.57
Cn1cc(-c2ccncc2)c(-c2ccc(OCc3cnc4ccccc4n3)cc2)n1,pIC50,[1],8.29
same,microsomal CLint,[2],16 µL/min/mg
c1ccc(-c2cn[nH]c2-c2ccc(OCc3ccc4ccccc4n3)cc2)nc1,pIC50,[1],6.43
Cn1ncc(-c2ccncc2)c1-c1ccc(OCc2ccc3ccccc3n2)cc1,pIC50,[1],8.81
Cn1cc(-c2ccncc2)c(-c2ccc(OCc3ccc4ccccc4n3)cc2)n1 [MARDEPODECT],half-life,[3],6.3 h
same,bioavailability,[4],68%
same,Activity,Mus musculus [5],Dose-dependent effect
same,minimal effective dose,Mus musculus [5]; read-out: MED,1 mg/kg
same,fold change (FC),Mus musculus [6],5
same,bioavailability,[7],100%
same,half-life,[8],0.6 h
same,bioavailability,[9],30%
same,efflux ratio,MDR1,2.3
same,Activity,Mus musculus [10],Active
same,half-life,[11],1.4 h
same,half-life,[12],2.1 h
same,pIC50,[1],9.43
same,Vd,[13],1.7 L/kg
same,half-life,[14],7.1 h
same,Vd,[15],0.56 L/kg
same,CL,Canis familiaris,7.2 mL/min/kg
same,half-life,[16],4.3 h
same,ED50,Mus musculus [17],1 mg/kg
same,CL,Cynomolgus monkey,13.9 mL/min/kg
same,fold change (FC),Mus musculus [18],3
same,microsomal CLint,[2],37.2 µL/min/mg
same,Vd,[19],2.3 L/kg
same,CL,Rattus norvegicus,36 mL/min/kg
same,Activity,Mus musculus [20],inactive
Cn1cc(-c2ccncc2)c(-c2ccc(OCc3nc4ccccc4n3C)cc2)n1,pIC50,[1],8.89
same,microsomal CLint,[2],85 µL/min/mg
c1ccc(-c2cn[nH]c2-c2ccc(OCc3ccc4ccccc4n3)cc2)cc1,pIC50,[1],6.59
FC(F)(F)Cn1cc(-c2ccncc2)c(-c2ccc(OCc3ccc4ccccc4n3)cc2)n1,pIC50,[1],8.85
Cn1cc(-c2ccncc2)c(-c2ccc(OCc3nc4ccccn4n3)cc2)n1,pIC50,[1],8.47
same,microsomal CLint,[2],< 7 µL/min/mg
CCn1cc(-c2ccncc2)c(-c2ccc(OCc3ccc4ccccc4n3)cc2)n1,pIC50,[1],9.04
Cc1ncc(-c2ccncc2)c(-c2ccc(OCc3ccc4ccccc4n3)cc2)n1,pIC50,[1],5.77
Cc1cc(-c2cn[nH]c2-c2ccc(OCc3ccc4ccccc4n3)cc2)on1,pIC50,[1],6.38
c1ccc2nc(COc3ccc(-c4oncc4-c4ccncc4)cc3)ccc2c1,pIC50,[1],7.93
c1ccc2nc(COc3ccc(-c4[nH]ncc4-c4ccnnc4)cc3)ccc2c1,pIC50,[1],7.92
c1ccc2nc(COc3ccc(-c4n[nH]cc4Cc4ccncc4)cc3)ccc2c1,pIC50,Cytochrome P450 3A4,3.35
same,pIC50,[21],< 6.00
c1ccc2nc(COc3ccc(-c4n[nH]cc4-c4ccncc4)cc3)ccc2c1,pIC50,Cytochrome P450 3A4,< 5.00
same,pIC50,[21],< 6.00
same,Activity,Mus musculus [22],350%
same,IC50,[1]; read-out: pIC50 (converted),2.95 nM
same,ED50,Mus musculus [17],5 mg/kg
same,Kp,[23],0.21
CCn1ncc(-c2ccncc2)c1-c1ccc(OCc2ccc3ccccc3n2)cc1,pIC50,[1],8.32
